What was measured:
B16F10 melanoma cell [1] = assay: Hoechst 33342 fluorescence microscopy for apoptosis in melanoma cells; assay type: cell-based, mouse; conditions: Hoechst33342, each concentration, versus control
Description: The observation using the fluorescence microscope was carried out by the process comprising washing with PBS (−) a suspension of B16F10 cells treated with an agent for a given time (1×10^6 cells/ml), fixing the cells with 4% paraformaldehyde overnight, washing the cell fixed solution with PBS(−), suspending the cells in 20 μl of PBS (−), mixing 2 μl of fluorescence indicator (Hoechst 33342 (1 mM)) with each 5 μl of the cell suspension, placing a cover glass on the mixture, watching it using the fluorescence microscope (U region) and photographing.
The shape of the cells was observed using Hoechst33342 (dye) which specifically combined with the chromosome by fluorescence microscope to find out whether or not the cell death by capsaicin or Dohevanil was due to the apoptosis. As a result, the aggregation of chromatins and the disorder of nuclear shape, which are characteristics of the cell death by apoptosis, were observed by comparison with the control in each concentration of capsaicin or Dohevanil.

[2] = system: HL-60 cell (acute promyelocytic leukemia cell); conditions: low concentration; cited from earlier work
NIH/3T3 cells = assay: NIH/3T3 normal cell growth by WST-1 method and LDH active release; assay type: cell-based; conditions: concentration 30 μM or less
Description: (§1) In order to make a comparison between the anti-tumor effects of capsaicin and Dohevanil, the following experimentation was carried out using HeLa cells derived from human uterocervical cancer as a tomor cell and NIH/3T3 cells as a normal cell. These cells used in the experimentation were cultured in RPMI-1640 medium (pH7.2) with 5% bovine fetal serum under the culture conditions being maintained in 5% CO2 and at 37 degrees Celsius. capsaicin or Dohevanil was added to each of the cell suspensions in the concentration of 10 μM, 30 μM, 50 μM, or 100 μM and then the cells were cultured. In this comparative example, the capability of cell growth was measured by WST-1 method and LDH active release into the supernatant as an indicator.
(§2) In this connection, the term “WST-1 method” used in the example means a method comprising reducing a formazan by using a reductase activity of mitochondria and determining an absorption of the coloring. The absorption may be used as an indicator of the cell growth because the reductase activity of mitochondria is lost if the cells die. The term “LDH active release” as used herein means that LDH (lactate dehydrogenase) is released due to a destruction of cell membrane accompanied with a cell death, and the measured value of the active release can be used as an indicator of the cell death.

HeLa cells = assay: HeLa cell growth by WST-1 method and LDH active release; assay type: cell-based, human; conditions: for survival ratio of the cells: 100 μM, HeLa cells; for action on the growth of HeLa cells (in words): 10, 30, 50, 100 μM
Description: as §1, §2

B16F10 melanoma cell [3] = assay: Growth of B16F10 melanoma cells, number of cells counted with trypan blue and hemocytometer; assay type: cell-based, mouse; conditions: for cells in culture relative to the control culture: 50 μM; for cells in culture relative to the control culture / cells in culture relative to the control culture (survival ratio): cultured for 48 hours, B16F10; for cells in culture relative to the control culture (survival ratio): 100 μM; for action on the growth of melanoma cells (in words): 10-300 μM capsaicin, 10-100 μM Dohevanil, 48 hours, versus control
Description: B16F10 melanoma cell used for the comparison was a malignant melanoma cell derived from a mouse. The melanoma cells were cultured under 5% CO2 condition at 37 degrees Celsius in DMEM culture medium (pH7.2) including 10% of bovine fetus serum and penicillin/streptomycin solution. After the cells reached from 70% to 80% confluent, the cells were treated with trypsin-EDTA to release from the wall of culture device and were subjected to passage culture.
The number of cells were measured by the process comprising suspending the cells collected, sufficiently mixing the suspension with a trypan blue stain solution in the same volume of the suspension, watching the suspension using a phase contrast microscope and measuring the number of cells with a hemocytometer (Burker-Turk hemocytometer, Nippon Rinsho Kikai Kogyo Ltd.)
In order to examine the action of capsaicin to the growth of melanoma cells, the number of the cells were measured after 10 μM, 30 μM, 50 μM, 100 μM, or 300 μM of capsaicin was added to the MDEM media in which the melanoma cells exist and then the cells were cultured for 48 hours. […] In order to examine the action of Dohevanil to the growth of melanoma cells, the number of the cells were measured in the same manner as conducted for capsaicin except that capsaicin was replaced with Dohevanil. The melanoma cells were cultured in 10 μM, 30 μM, 50 μM, or 100 μM of Dohevanil.

[4] = system: normal cells of human mammary gland epithelium and of liver and kidney of the rat; conditions: cited from earlier work
[5] = system: Hela cell (uterocervica cancer cell); conditions: low concentration; cited from earlier work
caspase 3 activity [6] = assay: Measurement of caspase 3 activity (Example 7, U937); assay type: cell-based, human
Description: In particular, when the concentration is 100 μM, although the survival ratio of the cells with capsaicin is about 50%, that with Dohevanil is zero (0) %. Accordingly, it is apparent as compared with capsaicin that Dohevanil is very low in the degree of hotness and stimulus, and coincidentally has a higher anti-leukemic cell effects.

[7] = system: human acute leukemia cell U937; assay: U937 cell growth by cell differential staining with trypan blue; assay type: cell-based; conditions: for survival ratio of the cells: 100 μM, U937 cells; for action on the growth of U937 cells (in words): 10, 30, 50, 100 μM
Description: In order to make a comparison between the anti-leukemic cell effects of capsaicin and Dohevanil, the following experimentation was carried out using a human acute leukemia cell U937. The U937 cells were cultured in RPMI-1640 medium (pH7.2) with 5% bovine fetal serum under the culture conditions being maintained in 5% CO2 and at 37 degrees Celsius. capsaicin or Dohevanil was added to each of the cell suspensions in the concentration of 10 μM, 30 μM, 50 μM,or 100 μM and then the cells were cultured. In this comparative example, the capability of cell growth was evaluated using the measured value as an indicator obtained by a method for the cell differential staining with trypan blue.
The method for the cell differential staining with trypan blue is a method utilizing the characters that trypan blue combines with a protein to color in blue and that trypan blue enters into the dead cells due to the loss of a membrane function to prevent from its invasion. Since the dead cells are colored in blue with trypan blue, the survival ratio of the cells can be determined by counting the stained cells using a microscope.

caspase 3 activity [8] = assay: Measurement of caspase 3 activity (Example 6); assay type: cell-based
B16F10 melanoma cell [9] = assay: Phase contrast microscope observation of treated melanoma cells; assay type: cell-based, mouse; conditions: Dohevanil 50 μM compared with capsaicin 300 μM
Description: The observation of cytomorphology using the light microscope was carried out by counting with TMS (NIKON Corporation) and photographing, after plating the cells on a multiplate, and culturing it for a given time.
The shape and appearance of the melanoma cells treated in the presence of capsaicin in the concentration of 300 μM or Dohevanil in the concentration of 50 μM was observed using a phase contrast microscope.

Row | SMILES | induction of apoptosis (aggregation of chromatins, disorder of nuclear shape) (B16F10 melanoma cell [1]) | proliferative inhibitory effect (in words) [2] | action to NIH/3T3 normal cells (in words) (NIH/3T3 cells) | survival ratio of the cells (HeLa cells) | action on the growth of HeLa cells (in words) (HeLa cells) | cells in culture relative to the control culture (B16F10 melanoma cell [3]) | cells in culture relative to the control culture (survival ratio) (B16F10 melanoma cell [3]) | action on the growth of melanoma cells (in words) (B16F10 melanoma cell [3]) | proliferative inhibitory effect to normal cells (in words) [4] | proliferative inhibitory effect (in words) [5] | apoptosis according to caspase 3 activity (caspase 3 activity [6]) | survival ratio of the cells [7] | action on the growth of U937 cells (in words) [7] | apoptosis according to caspase 3 activity (caspase 3 activity [8]) | melanoma cells adhered to the wall of culture vessel (in words) (B16F10 melanoma cell [9])
1 | COc1cc(CNC(=O)CCCCC=CC(C)C)ccc1O [capsaicin, 8-methyl-N-vanillyl-6-nonenamide] | induce the apoptosis to melanoma cells | proliferative inhibitory effect in a low concentration | hardly act | about 50% | suppress the growth of HeLa cells depending on their concentrations | about 60% | about 50% | suppressed the growth of the cells depending on the concentration | without any proliferative inhibitory effects | proliferative inhibitory effect in a low concentration | induce the apoptosis to cause the cell death | about 50% | suppress the growth of U937 cells depending on their concentrations | induce the apoptosis to cause the cell death | 
2 | CC/C=C\C/C=C\C/C=C\C/C=C\C/C=C\C/C=C\CCC(=O)NCc1ccc(O)c(OC)c1 [Dohevanil, N-vanillyl-4,7,10,13,16,19-Docosahexaenamide] | strongly induces the apoptosis |  | hardly act | 0% | suppress the growth of HeLa cells depending on their concentrations | about 10% | 0% | suppressed the growth of the cells depending on the concentration |  |  | induce the apoptosis to cause the cell death | 0% | suppress the growth of U937 cells depending on their concentrations | induce the apoptosis to cause the cell death | extremely reduced

Reference: patent US20040110844A1, “Anti-tumor pharmaceutical composition comprising N-vanillyl fatty acid amide” (KUREHA CHEMICAL INDUSTRY COMPANY, Limited, priority 2002, published 2004)
